Results taken from paper PMC4867306 (European journal of medicinal chemistry, 2016).
Entries after “also recorded” stand apart in the source; their conditions may differ. Read-outs that look alike come from different tables or passages of the source.

What was measured:
[1] = target: T1, LAP (M17 leucine aminopeptidase) (Sus scrofa, UniProt P28839); experiment: Inhibition of porcine kidney leucine aminopeptidase; assay type: biochemical
T1 sequence (P28839 33-519 limits assumed): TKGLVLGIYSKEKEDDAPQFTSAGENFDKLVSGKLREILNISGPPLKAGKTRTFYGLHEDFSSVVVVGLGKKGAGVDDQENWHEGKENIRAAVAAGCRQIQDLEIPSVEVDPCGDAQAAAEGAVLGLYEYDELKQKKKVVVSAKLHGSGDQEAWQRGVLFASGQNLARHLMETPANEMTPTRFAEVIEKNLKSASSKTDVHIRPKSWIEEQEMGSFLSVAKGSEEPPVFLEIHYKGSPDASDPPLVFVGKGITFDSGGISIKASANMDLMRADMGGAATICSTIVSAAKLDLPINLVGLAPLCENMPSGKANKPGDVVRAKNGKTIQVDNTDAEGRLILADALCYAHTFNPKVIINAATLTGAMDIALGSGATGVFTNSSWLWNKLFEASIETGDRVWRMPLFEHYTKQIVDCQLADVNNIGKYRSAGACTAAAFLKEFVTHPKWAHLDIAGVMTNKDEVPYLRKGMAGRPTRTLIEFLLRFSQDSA

[2] = target: T1, LAP (M17 leucine aminopeptidase); conditions: originally measured activity; NI = no inhibition up to 0.8 mM inhibitor concentration; cited from earlier work
[3] = target: T2, NmAPN (M1 alanine aminopeptidase from Neisseria meningitidis) (Neisseria meningitidis, UniProt Q9JYV4)
T2 sequence (Q9JYV4 1-867): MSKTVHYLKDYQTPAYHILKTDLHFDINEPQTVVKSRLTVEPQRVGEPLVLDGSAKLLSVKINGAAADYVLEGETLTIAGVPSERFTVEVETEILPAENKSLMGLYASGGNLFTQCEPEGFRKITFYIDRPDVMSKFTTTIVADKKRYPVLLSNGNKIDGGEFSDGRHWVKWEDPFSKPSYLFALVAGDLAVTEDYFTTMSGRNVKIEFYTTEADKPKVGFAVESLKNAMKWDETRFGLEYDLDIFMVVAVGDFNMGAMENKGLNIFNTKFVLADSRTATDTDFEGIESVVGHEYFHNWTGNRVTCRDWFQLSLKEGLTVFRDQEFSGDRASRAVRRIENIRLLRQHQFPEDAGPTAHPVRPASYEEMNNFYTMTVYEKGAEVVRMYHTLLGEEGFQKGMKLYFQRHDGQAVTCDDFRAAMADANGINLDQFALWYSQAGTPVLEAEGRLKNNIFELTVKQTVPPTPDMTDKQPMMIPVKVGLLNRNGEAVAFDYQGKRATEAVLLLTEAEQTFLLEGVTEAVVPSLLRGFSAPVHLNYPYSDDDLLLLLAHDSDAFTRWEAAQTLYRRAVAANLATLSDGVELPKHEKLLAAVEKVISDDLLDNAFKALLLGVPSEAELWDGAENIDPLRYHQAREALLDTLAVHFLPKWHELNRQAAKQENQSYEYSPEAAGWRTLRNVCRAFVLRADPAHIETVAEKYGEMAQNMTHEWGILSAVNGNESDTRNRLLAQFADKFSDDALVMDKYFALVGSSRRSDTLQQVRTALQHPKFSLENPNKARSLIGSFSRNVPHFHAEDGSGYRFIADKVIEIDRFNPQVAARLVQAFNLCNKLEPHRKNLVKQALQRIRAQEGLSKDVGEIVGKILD

[4] = target: T2, NmAPN (M1 alanine aminopeptidase from Neisseria meningitidis); conditions: read-out: Ki NmAPN; cited from earlier work

NC(CN1CCOCC1)P(=O)(O)O (centres unmarked) [1w] showed a Ki ([1]; read-out: Ki LAP, NI = no inhibition up to 0.8 mM inhibitor concentration) of over 800000 nM.

In the case of CC(C)CNCC(N)P(=O)(O)O (centres unmarked) [1d], the “Ki LAP” value [2] is given as “inactive; also recorded: do not inhibit LAP at all”.

For NC(CNC1CCCCC1)P(=O)(O)O (centres unmarked) [1h, N-cyclohexyl-1,2-diaminoethylphosphonic acid], the “Ki LAP” value [2] is listed as “does not influence the LAP activity at all; also recorded: inactive; also recorded: do not inhibit LAP at all”.

In the case of COc1ccc(CNCC(N)P(=O)(O)O)cc1 (centres unmarked) [1s], the “improvement of affinity compared with non-modified analogue 1n” value [3] is reported as 3-to-4 fold.

In the case of Nc1ccc(CNCC(N)P(=O)(O)O)cc1 (centres unmarked) [1r], the “improvement of affinity compared with non-modified analogue 1n” value [3] is reported as 3-to-4 fold.

In the case of NC(CCc1ccccc1)P(=O)(O)CC(Cc1ccccc1)C(=O)O (centres unmarked) [phosphinic analogue of hPhePhe], the Ki [4] is listed as 302 nM.

With NC(CNCC1CCCO1)P(=O)(O)O (centres unmarked) [1k] the Ki [1] was 2500 to 7000 nM.

For CCCNCC(N)P(=O)(O)O (centres unmarked) [1c], the “Ki LAP” value [2] is listed as “inactive; also recorded: do not inhibit LAP at all”.
